# Test results published in ChEMBL document CHEMBL2169878 (J Med Chem, 2012).
# The source made the active and inactive calls. No cut-off for these calls is given here.
# Key:
# Plasmodium falciparum [1] = test: Antiplasmodial activity against chloroquine-resistant Plasmodium falciparum W2 infected in human RBC after 72 hrs by parasite lactate dehydrogenase assay; assay type: functional, organism-based; details: W2, 72 h
# Plasmodium falciparum [2] = test: Antiplasmodial activity against chloroquine-sensitive Plasmodium falciparum D10 infected in human RBC after 72 hrs by parasite lactate dehydrogenase assay; assay type: functional, organism-based; details: D10, 72 h
# Plasmodium falciparum [3] = test: Antiplasmodial activity against chloroquine-sensitive Plasmodium falciparum NF54 infected in human erythrocytes assessed as inhibition of [3H]hypoxanthine incorporation incubated for 48 hrs prior to [3H]hypoxanthine addition measured after 48 hrs by liquid scintillation counting; assay type: functional, organism-based
# Plasmodium falciparum [4] = test: Resistance ratio of IC50 for chloroquine-resistant Plasmodium falciparum W2 to IC50 for chloroquine-sensitive Plasmodium falciparum D10; assay type: functional
# Plasmodium falciparum [5] = test: Antiplasmodial activity against chloroquine-resistant Plasmodium falciparum K1 infected in human erythrocytes assessed as inhibition of [3H]hypoxanthine incorporation incubated for 48 hrs prior to [3H]hypoxanthine addition measured after 48 hrs by liquid scintillation counting; assay type: functional, organism-based
# Plasmodium falciparum [6] = test: Resistance ratio of IC50 for chloroquine-resistant Plasmodium falciparum K1 to IC50 for chloroquine-sensitive Plasmodium falciparum NF54; assay type: functional
# [7] = biological target: T1, Chloroquine resistance transporter (Plasmodium falciparum) (UniProt Q9N623); test: Inhibition of chloroquine-resistant Plasmodium falciparum Dd2 CRT expressed in Xenopus laevis oocyte assessed as inhibition of [3H]chloroquine uptake at 100 uM measured from 1 to 2 hrs
# T1 sequence (whole entry): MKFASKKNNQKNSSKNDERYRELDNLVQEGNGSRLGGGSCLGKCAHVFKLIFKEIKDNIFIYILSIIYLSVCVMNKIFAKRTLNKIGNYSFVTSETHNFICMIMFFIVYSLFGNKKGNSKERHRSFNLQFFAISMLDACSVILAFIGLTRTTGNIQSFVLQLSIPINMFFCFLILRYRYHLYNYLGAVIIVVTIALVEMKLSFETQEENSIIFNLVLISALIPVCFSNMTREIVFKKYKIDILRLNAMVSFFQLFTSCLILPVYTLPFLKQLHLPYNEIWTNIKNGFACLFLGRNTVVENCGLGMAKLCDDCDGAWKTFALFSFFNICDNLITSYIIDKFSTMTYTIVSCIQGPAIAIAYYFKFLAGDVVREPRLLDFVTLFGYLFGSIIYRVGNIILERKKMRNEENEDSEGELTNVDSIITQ
# [8] = Cytotoxicity against human HepG2 cells after 24 hrs by neutral red dye uptake assay; assay type: cell-based; details: read-out: TC50
# [9] = Cytotoxicity against mouse NIH3T3 cells after 24 hrs by neutral red dye uptake assay; assay type: cell-based; details: read-out: TC50
SMILES,IC50 (Plasmodium falciparum [1]) [nM],IC50 (Plasmodium falciparum [2]) [nM],IC50 (Plasmodium falciparum [3]) [nM],Ratio IC50 (Plasmodium falciparum [4]),IC50 (Plasmodium falciparum [5]) [nM],Ratio IC50 (Plasmodium falciparum [6]),inhibition [7],CC50 at 24 h [8] [nM],CC50 at 24 h [9] [nM]
COc1cc(C(Nc2ccnc3cc(Cl)ccc23)c2ccc(Cl)cc2)ccc1CN1CCCC1 (racemic),48,31,–,–,–,–,–,–,–
COc1ccc2nccc(NC(c3ccc(Cl)cc3)c3ccc(CN4CCNCC4)cc3)c2c1 (racemic),163,67,21,2.4,58,2.8,–,–,–
CN1CCN(Cc2ccc(C(Nc3ccnc4cc(Cl)ccc34)c3ccc(Cl)cc3)cc2)CC1 (racemic),42,21,–,2,–,–,Active,–,–
Clc1ccc(C(Nc2ccnc3cc(Cl)ccc23)c2ccc(CN3CCN(Cc4ccccc4)CC3)cc2)cc1 (racemic),790,163,–,4.8,–,–,–,–,–
Clc1ccc(C(Nc2ccnc3cc(Cl)ccc23)c2ccc(CN3CCN(Cc4ccc(C(Nc5ccnc6cc(Cl)ccc56)c5ccc(Cl)cc5)cc4)CC3)cc2)cc1 (racemic),98,190,89,0.5,56,0.6,–,–,–
Clc1ccc(C(c2ccc(CN3CCCC3)cc2)N2CCN(c3ccnc4cc(Cl)ccc34)CC2)cc1 (racemic),735,631,88,–,156,–,58%,–,–
Clc1cccc(C(Nc2ccnc3cc(Cl)ccc23)c2ccc(CN3CCN(c4ccnc5cc(Cl)ccc45)CC3)c(Cl)c2)c1 (racemic),58,104,83,–,10,–,–,–,–
Clc1cccc(C(Nc2ccnc3cc(Cl)ccc23)c2ccc(CN3CCCC3)c(Cl)c2)c1 (racemic),50,57,13,–,19,–,–,–,–
Fc1cc(C(Nc2ccnc3cc(Cl)ccc23)c2cccc(Cl)c2)ccc1CN1CCCC1 (racemic),25,9,–,–,–,–,70%,–,–
Clc1ccc(C(Nc2ccnc3cc(Cl)ccc23)c2ccc(CN3CCCC3)cc2)cc1 (racemic),–,–,–,1.6,–,1.1,70%,–,–
Clc1ccc(C(c2ccccc2)(c2ccc(CN3CCCC3)cc2)n2ccnc2)cc1 (racemic),–,–,–,–,–,–,Active,–,–
Clc1ccccc1C(c1ccccc1)(c1ccccc1)n1ccnc1 [CLOTRIMAZOLE],–,–,–,–,–,–,–,> 48000,> 48000
